From patent US20180092866A1, “SUBSTITUTED N-([1,1'-BIPHENYL]-3-YL)-[1,1'-BIPHENYL]-3-CARBOXAMIDE ANALOGS AS INHIBITORS FOR BETA-CATENIN/B-CELL LYMPHOMA 9 INTERACTIONS” (University of Utah Research Foundation, priority 2015, published 2018)
Positions count from the first letter of the chain named.

Tests used:
[1] = tested on: AXIN2, LGR5, LEF1, and cyclin D1 transcription in MDA-MB-231 cells; assay: Quantitative real-time PCR, MDA-MB-231 cells; format: cell-based, human; conditions: 2 and 4 μM
Description: SW480 and MDA-MB-231 cells at 1×10^6/mL were treated with different concentrations of 21 for 24 h. Total RNAs were extracted with TRIzol ([…], Life Technologies), and the cDNA was synthesized with the superscript III first-strand kit (18080-051, Invitrogen). Quantitative PCR (qPCR) was performed using the iQ™ SYBR green supermix kit (170-8880, BIO-RAD) on an iQ^5 multicolor real-time PCR reaction system (BIO-RAD). The threshold cycle (CT) values were normalized to that of internal reference GAPDH. The primer pairs for human GAPDH were forward: 5′-[…]-3′, and reverse: 5′-[…]-3′, for human AXIN2 forward: 5′-[…]-3′ and reverse: 5′-[…]-3′, for human LGR5 forward: 5′-[…]-3′ and reverse: 5′-[…]-3′, for human LEF1 forward: 5′-[…]-3′ and reverse: 5′-[…] […]-3′, and for human cyclin D1 forward: 5′-[…]-3′, and revers: 5′-[…]-3′. Experiments were performed in triplicate.

[2] = molecular target: T1, wild-type human β-catenin (residues 138-686) (Homo sapiens, UniProt P35222); assay: Isothermal titration calorimetry, wild-type β-catenin; format: binding; conditions: ITC, 28° C.
T1 construct: His6 (C); made in house; host or cells: E. coli BL21 DE3
T1 sequence (P35222 138-686): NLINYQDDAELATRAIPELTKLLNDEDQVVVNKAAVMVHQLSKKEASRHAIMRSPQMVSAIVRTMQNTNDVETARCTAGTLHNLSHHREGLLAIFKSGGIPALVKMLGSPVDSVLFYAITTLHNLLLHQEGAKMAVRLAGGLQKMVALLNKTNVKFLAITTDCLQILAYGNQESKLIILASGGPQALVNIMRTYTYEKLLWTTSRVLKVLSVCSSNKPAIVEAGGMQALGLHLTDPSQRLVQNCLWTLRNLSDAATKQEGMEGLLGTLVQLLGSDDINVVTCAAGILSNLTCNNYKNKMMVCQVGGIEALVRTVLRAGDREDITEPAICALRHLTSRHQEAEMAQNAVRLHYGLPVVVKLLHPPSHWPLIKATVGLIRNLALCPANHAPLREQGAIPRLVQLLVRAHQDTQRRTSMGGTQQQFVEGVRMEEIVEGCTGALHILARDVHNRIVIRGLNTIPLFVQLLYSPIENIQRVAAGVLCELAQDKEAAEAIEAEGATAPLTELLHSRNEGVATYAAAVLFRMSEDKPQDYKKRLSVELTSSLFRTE
Description: (§1) ITC measurements were performed at 28° C. using a VP-ITC (Microcal, GE Healthcare Life Sciences). […] The homogeneity of the purified proteins were examined by native gel electrophoresis. Each titration experiment was initiated by a 2 μL injection, and followed by 30-35 times injections with an 8 μL volume each. Blank titrations, which were carried out by injecting the compound into the buffer, were subtracted from each data set. The association constant KA, enthalpy change (ΔH), and stoichiometry N were obtained from fitting the data using the Origin software package. The dissociation constant Kd, the free energy change ΔG, and the entropy change ΔS were obtained from the basic thermodynamic equations, Kd=KA^−1, ΔG=−RTlnKA, and ΔG=ΔH−TΔS.

[3] = molecular target: T2, β-catenin L159S mutant (residues 138-686) (Homo sapiens, UniProt P35222, L159S); assay: Isothermal titration calorimetry, β-catenin L159S; format: binding; conditions: ITC
T2 construct: His6 (C); made in house; host or cells: E. coli BL21 DE3
T2 sequence (P35222 138-686 L159S): T1 sequence (P35222 138-686) with L22S
Description: (§2) Mutants β-catenin D145A, E155A, L156S, L159S, D145A/E155A, L156S/L159S, and L156S/L178S were generated using the overlapping PCR method. Template for the mutagenesis reactions was wide type full-length β-catenin in pET-28b. KOD hot start DNA polymerase (Novagen) was used through this experiment. Mutants were confirmed by direct sequencing (Core facility, University of Utah). Following the confirmation of the sequence, mutant β-catenin were cloned into a pET-28b vector and transformed into E. coli BL21 DE3.
as §1

[4] = molecular target: T3, β-catenin L156S/L178S mutant (residues 138-686) (Homo sapiens, UniProt P35222, L156S/L178S); assay: Isothermal titration calorimetry, β-catenin L156S/L178S; format: binding; conditions: ITC
T3 construct: His6 (C); made in house; host or cells: E. coli BL21 DE3
T3 sequence (P35222 138-686 L156S/L178S): T1 sequence (P35222 138-686) with L19S, L41S
Description: as §2, §1

O=C(Nc1ccc(O[C@H]2CCNC2)c(-c2ccc(F)cc2)c1)c1ccc(O[C@H]2CCNC2)c(-c2ccc(F)c(F)c2)c1 [Compound 21, (S)-3-((3′,4′-difluoro-5-((4′-fluoro-6-((S)-pyrrolidin-1-ium-3-yloxy)-[1,1′-biphenyl]-3-yl)carbamoyl)-[1,1′-biphenyl]-2-yl)oxy) pyrrolidin-1-ium chloride]
inhibition of mRNA expression [1]: More than 50% | Kd [2]: 333 ± 6 nM | Kd [3]: 924 ± 33 nM | Kd [4]: 1590 ± 45 nM
